Biological target: T1, recombinant human secreted phospholipase A2 (Homo sapiens, UniProt P14555)
T1 sequence (P14555 21-144): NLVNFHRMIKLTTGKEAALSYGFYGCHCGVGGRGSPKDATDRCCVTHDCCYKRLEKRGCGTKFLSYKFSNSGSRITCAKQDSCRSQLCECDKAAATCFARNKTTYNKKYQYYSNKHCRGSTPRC
Assay: PLA2 Chromogenic Assay (human secreted phospholipase A2 inhibition)
Type: biochemical
Settings: racemic diheptanoyl thio-PC 1 mM, pH 7.5, 40° C., 30 minutes, 405 nanometers, triplicate, read-out: Compound IC50
Excerpt: The following chromogenic assay procedure was used to identify and evaluate inhibitors of recombinant human secreted phospholipase A2. The assay described herein has been adapted for high volume screening using 96 well microtiter plates. A general description of this assay method is found in the article, "Analysis of Human Synovial Fluid Phospholipase A2 on Short Chain Phosphatidylcholine-Mixed Micelles: Development of a Spectrophotometric Assay Suitable for a Microtiterplate Reader", by Laure J. Reynolds, Lori L. Hughes, and Edward A Dennis, Analytical Biochemistry,204, pp. 190-197, 1992 (the disclosure of which is incorporated herein by reference): […]
A measured volume of racemic dipheptanoyl thio PC supplied in chloroform at a concentration of 100 mg/ml is taken to dryness and redissolved in 10 millimolar TRITON X-100™ nonionic detergent aqueous solution. […]
5. Read absorbance of wells at 405 nanometers with an automatic plate reader.
All compounds were tested in triplicate. […] Compounds initially found to be active were reassayed to confirm their activity and, if sufficiently active, IC50 values were determined. […] In all cases, % inhibition measured at 405 nanometers generated by enzyme reactions containing inhibitors relative to the uninhibited control reactions was determined. […] IC50 were determined by plotting log concentration versus inhibition values in the range from 10-90% inhibition.

Row | SMILES | IC50
1 | CC1=C(CC(N)=O)c2cc(OCCCC(=O)O)ccc2/C1=C\c1ccccc1 [Compound 14a, 4-[3(z)-benzylidene-1-carbamoylmethyl-2-methyl-3H-inden-6-yloxy]-butanoic acid] | 910 nM
2 | CC1=C(CC(N)=O)c2c(OCC(=O)O)cccc2/C1=C\c1ccccc1 [Compound 14b, [3(z)-benzylidene-1-carbamoylmethyl-2-methyl-3H-inden-7-yloxy]-acetic acid] | 420 nM

Source: patent US6214876A, “Indene-1-acetamide sPLA2 inhibitors” (Eli Lilly and Company, priority 1994, dated 2001)
